Patent US10993947B2, “Treatment of skin lesions” (PIQUR THERAPEUTICS AG, priority 2016, dated 2021)
Where two headings read alike, the source gives them in different places.

Tests used:
[1] = target: T1, N-terminally GST-tagged mTOR (Homo sapiens, UniProt P42345); test: In vitro mTOR binding assay (LanthaScreen TR-FRET)
T1 construct: truncated version: amino acids 1360-2549; purchased Life Technologies PR8683B

pPKB S473 in A2058 cells = test: In-cell Western blot, pPKB S473; type: cell-based; conditions: Homo sapiens, 1 hour treatment
[2] = system: pS6 S235/S236 in A2058 cells; test: In-cell Western blot, pS6 S235/S236; type: cell-based; conditions: Homo sapiens, 1 hour treatment
[3] = LanthaScreen kinase binding, Tracer 314, read-out: mTOR IC50 (binding)

T1 sequence (P42345 1360-2549): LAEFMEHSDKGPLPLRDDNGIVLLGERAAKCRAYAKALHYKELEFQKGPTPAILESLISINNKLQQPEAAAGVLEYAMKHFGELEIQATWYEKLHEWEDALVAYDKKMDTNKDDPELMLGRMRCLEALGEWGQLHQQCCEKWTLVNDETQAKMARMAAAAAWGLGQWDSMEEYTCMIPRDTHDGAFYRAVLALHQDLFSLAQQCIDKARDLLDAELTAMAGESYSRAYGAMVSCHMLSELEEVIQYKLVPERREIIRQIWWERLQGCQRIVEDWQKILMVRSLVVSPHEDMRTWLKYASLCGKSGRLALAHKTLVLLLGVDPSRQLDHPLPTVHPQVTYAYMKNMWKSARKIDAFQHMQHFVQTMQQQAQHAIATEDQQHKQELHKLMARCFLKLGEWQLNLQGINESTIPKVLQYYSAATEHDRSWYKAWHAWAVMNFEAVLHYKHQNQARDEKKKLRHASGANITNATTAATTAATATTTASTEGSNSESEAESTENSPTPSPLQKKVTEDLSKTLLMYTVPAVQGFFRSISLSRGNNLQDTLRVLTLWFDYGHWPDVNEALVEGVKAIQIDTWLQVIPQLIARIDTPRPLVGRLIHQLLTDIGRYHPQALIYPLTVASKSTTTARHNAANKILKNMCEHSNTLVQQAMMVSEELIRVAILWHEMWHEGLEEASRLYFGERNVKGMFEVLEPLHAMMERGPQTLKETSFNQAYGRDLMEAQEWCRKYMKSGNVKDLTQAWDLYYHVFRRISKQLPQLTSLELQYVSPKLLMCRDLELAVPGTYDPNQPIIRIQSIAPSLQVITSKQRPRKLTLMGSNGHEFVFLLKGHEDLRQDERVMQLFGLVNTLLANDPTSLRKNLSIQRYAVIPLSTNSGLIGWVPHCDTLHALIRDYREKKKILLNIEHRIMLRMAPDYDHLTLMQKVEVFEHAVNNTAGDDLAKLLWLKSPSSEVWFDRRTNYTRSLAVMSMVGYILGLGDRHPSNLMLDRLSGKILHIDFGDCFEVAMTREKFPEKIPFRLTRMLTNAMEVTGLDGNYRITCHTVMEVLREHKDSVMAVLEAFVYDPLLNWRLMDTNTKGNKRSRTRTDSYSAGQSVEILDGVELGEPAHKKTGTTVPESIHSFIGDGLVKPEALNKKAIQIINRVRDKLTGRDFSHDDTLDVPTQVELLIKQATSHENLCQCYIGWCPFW

Row | IC50 (pPKB S473 in A2058 cells; A2058, 1 h) | IC50 ([2]; A2058, 1 h) | SMILES | further results
1 | – | – | Nc1ncc(-c2nc(N3CCOCC3)nc(N3CCOCC3)n2)c(C(F)F)n1 [Compound 2] | IC50 [1, 3]: 59 nM
2 | – | – | C[C@H]1COCCN1c1nc(-c2cnc(N)nc2C(F)F)nc(N2CCOC[C@@H]2C)n1 [Compound 7] | IC50 [1, 3]: 71 nM
3 | – | – | C[C@H]1COCCN1c1nc(-c2cnc(N)cc2C(F)(F)F)nc(N2CCOCC2)n1 [Compound 8 *, 5-[4-[(3S)-3-methylmorpholin-4-yl]-6-morpholino-1,3,5-triazin-2-yl]-4-(trifluoromethyl)pyridin-2-amine] | IC50 (pPKB S473 in A2058 cells): 196 nM; IC50 [2]: 90 nM
4 | – | – | C[C@H]1COCCN1c1nc(-c2cnc(N)cc2C(F)F)nc(N2CCOCC2)n1 [Compound 8, (S)-4-(difluoromethyl)-5-(4-(3-methylmorpholino)-6-morpholino-1,3,5-triazin-2-yl)pyridin-2-amine] | IC50 [1, 3]: 10 nM; IC50 (pPKB S473 in A2058 cells): 74 nM; IC50 [2]: 68 nM
5 | – | – | C[C@H]1COCCN1c1nc(-c2cnc(N)nc2C(F)F)nc(N2CCOCC2)n1 [Compound 9] | IC50 [1, 3]: 24 nM; IC50 (pPKB S473 in A2058 cells): 35 nM; IC50 [2]: 72 nM
6 | 350 nM | 883 nM | C[C@H]1COCCN1c1nc(-c2cnc(N)cc2C(F)F)nc(N2CCNCC2)n1 [Compound 14, (S)-4-(difluoromethyl)-5-(4-(3-methylmorpholino)-6-(piperazin-1-yl)-1,3,5-triazin-2-yl)pyridin-2-amine] | –
7 | 49 nM | 286 nM | C[C@H]1COCCN1c1nc(-c2cnc(N)nc2C(F)F)nc(N2CCNCC2)n1 [Compound 15, (S)-4-(difluoromethyl)-5-(4-(3-methylmorpholino)-6-(piperazin-1-yl)-1,3,5-triazin-2-yl)pyrimidin-2-amine] | –
8 | – | – | Nc1ncc(-c2cc(N3CCOCC3)nc(N3CCOCC3)n2)c(C(F)F)n1 [Compound 17, 4′-(difluoromethyl)-2,6-dimorpholino-[4,5′-bipyrimidin]-2′-amine] | IC50 [1, 3]: 155 nM; IC50 [2]: 149 nM
9 | – | – | Nc1ncc(-c2nc(N3CCOCC3)cc(N3CCOCC3)n2)c(C(F)F)n1 [Compound 19, 4′-(difluoromethyl)-4,6-dimorpholino-[2,5′-bipyrimidin]-2′-amine] | IC50 [1, 3]: 158 nM
10 | – | – | C[C@H]1COCCN1c1cc(-c2cnc(N)nc2C(F)F)nc(N2CCOCC2)n1 [Compound 28, (S)-4′-(difluoromethyl)-6-(3-methylmorpholino)-2-morpholino-[4,5′-bipyrimidin]-2′-amine] | IC50 [1, 3]: 23 nM
11 | – | – | Nc1cc(C(F)F)c(-c2nc(N3C4COCC3COC4)nc(N3C4COCC3COC4)n2)cn1 [Compound 37, 5-[4,6-bis(3,7-dioxa-9-azabicyclo[3.3.1]nonan-9-yl)-1,3,5-triazin-2-yl]-4-(difluoromethyl)pyridin-2-amine] | IC50 [1]: 49 nM
12 | 1050 nM | 332 nM | C[C@@H]1COCCN1c1nc(-c2cnc(N)cc2C(F)F)nc(N2C[C@H]3C[C@@H]2CO3)n1 [Compound 52, 4-(difluoromethyl)-5-[4-[(3R)-3-methylmorpholin-4-yl]-6-[(1R,4R)-2-oxa-5-azabicyclo[2.2.1]heptan-5-yl]-1,3,5-triazin-2-yl]pyridin-2-amine] | –
13 | 1320 nM | 612 nM | C[C@@H]1COCCN1c1nc(-c2cnc(N)cc2C(F)F)nc(N2C[C@@H]3C[C@H]2CO3)n1 [Compound 53, 4-(difluoromethyl)-5-[4-[(3R)-3-methylmorpholin-4-yl]-6-[(1S,4S)-2-oxa-5-azabicyclo[2.2.1]heptan-5-yl]-1,3,5-triazin-2-yl]pyridin-2-amine] | –
14 | 354 nM | 209 nM | CC[C@@H]1COCCN1c1nc(-c2cnc(N)cc2C(F)F)nc(N2CCOC[C@H]2CC)n1 [Compound 54, 5-[4,6-bis[(3R)-3-ethylmorpholin-4-yl]-1,3,5-triazin-2-yl]-4-(difluoromethyl)pyridin-2-amine] | –
15 | 942 nM | 526 nM | Nc1cc(C(F)F)c(-c2nc(N3CCOCC34CCC4)nc(N3CCOCC34CCC4)n2)cn1 [Compound 55, 5-[4,6-bis(8-oxa-5-azaspiro[3.5]nonan-5-yl)-1,3,5-triazin-2-yl]-4-(difluoromethyl)pyridin-2-amine] | –
16 | > 10000 nM | > 10000 nM | CC(C)[C@@H]1COCCN1c1nc(-c2cnc(N)cc2C(F)F)nc(N2CCOC[C@H]2C(C)C)n1 [Compound 56, 5-[4,6-bis[(3R)-3-isopropylmorpholin-4-yl]-1,3,5-triazin-2-yl]-4-(difluoromethyl)pyridin-2-amine] | –
17 | 787 nM | 395 nM | COC[C@@H]1COCCN1c1nc(-c2cnc(N)cc2C(F)F)nc(N2CCOCC2(C)C)n1 [Compound 67, 4-(difluoromethyl)-5-[4-(3,3-dimethylmorpholin-4-yl)-6-[(3R)-3-(methoxymethyl)morpholin-4-yl]-1,3,5-triazin-2-yl]pyridin-2-amine] | –
18 | 682 nM | 415 nM | CC1(C)COCCN1c1nc(-c2cnc(N)cc2C(F)F)nc(N2CCOC[C@H]2CO)n1 [Compound 68, [(3R)-4-[4-[6-amino-4-(difluoromethyl)-3-pyridyl]-6-(3,3-dimethylmorpholin-4-yl)-1,3,5-triazin-2-yl]morpholin-3-yl]methanol] | –
19 | 914 nM | 906 nM | CC1(C)COCCN1c1nc(-c2cnc(N)cc2C(F)F)nc(N2CCN(C3CC3)CC2)n1 [Compound 70, 5-[4-(4-cyclopropylpiperazin-1-yl)-6-(3,3-dimethylmorpholin-4-yl)-1,3,5-triazin-2-yl]-4-(difluoromethyl)pyridin-2-amine] | –
20 | 2340 nM | 3140 nM | COCCN1CCN(c2nc(-c3cnc(N)cc3C(F)F)nc(N3CCOCC3(C)C)n2)CC1 [Compound 71, 4-(difluoromethyl)-5-[4-(3,3-dimethylmorpholin-4-yl)-6-[4-(2-methoxyethyl)piperazin-1-yl]-1,3,5-triazin-2-yl]pyridin-2-amine] | –
21 | 476 nM | – | C[C@@H]1COCCN1c1nc(-c2cnc(N)cc2C(F)F)nc(N2CCOC[C@H]2CO)n1 [Compound 77, [(3R)-4-[4-[6-amino-4-(difluoromethyl)-3-pyridyl]-6-[(3R)-3-methylmorpholin-4-yl]-1,3,5-triazin-2-yl]morpholin-3-yl]methanol] | –
22 | 249 nM | 241 nM | CC[C@H]1COCCN1c1nc(-c2cnc(N)cc2C(F)F)nc(N2CCOC[C@H]2C)n1 [Compound 85, 4-(difluoromethyl)-5-[4-[(3S)-3-ethylmorpholin-4-yl]-6-[(3R)-3-methylmorpholin-4-yl]-1,3,5-triazin-2-yl]pyridin-2-amine] | –
23 | 231 nM | 236 nM | CC[C@@H]1COCCN1c1nc(-c2cnc(N)cc2C(F)F)nc(N2CCOC[C@H]2C)n1 [Compound 86, 4-(difluoromethyl)-5-[4-[(3R)-3-ethylmorpholin-4-yl]-6-[(3R)-3-methylmorpholin-4-yl]-1,3,5-triazin-2-yl]pyridin-2-amine] | –
24 | 263 nM | 277 nM | Nc1cc(C(F)(F)F)c(-c2cc(N3CCOCC3)nc(N3CCOCC3)n2)cn1 [reference compound] | –

Row | SMILES | IC50 (pPKB S473 in A2058 cells; A2058, 1 h) | IC50 ([2]; A2058, 1 h) | further results
25 | Nc1cc(C(F)F)c(-c2nc(N3CCOCC3)nc(N3C4CCC3COC4)n2)cn1 [Compound 4, 5-(4-(3-oxa-8-azabicyclo[3.2.1]octan-8-yl)-6-morpholino-1,3,5-triazin-2-yl)-4-(difluoromethyl)pyridin-2-amine] | 178 nM | 135 nM | –
26 | Nc1ncc(-c2nc(N3CCOCC3)nc(N3C4CCC3COC4)n2)c(C(F)F)n1 [Compound 5, 5-(4-(3-oxa-8-azabicyclo[3.2.1]octan-8-yl)-6-morpholino-1,3,5-triazin-2-yl)-4-(difluoromethyl)pyrimidin-2-amine] | 85 nM | 135 nM | –
27 | C[C@H]1COCCN1c1nc(-c2cnc(N)cc2C(F)F)nc(N2C3CCC2COC3)n1 [Compound 10, 5-(4-(3-oxa-8-azabicyclo[3.2.1]octan-8-yl)-6-((S)-3-methylmorpholino)-1,3,5-triazin-2-yl)-4-(difluoromethyl)pyridin-2-amine] | 138 nM | 93 nM | –
28 | C[C@H]1COCCN1c1nc(-c2cnc(N)nc2C(F)F)nc(N2C3CCC2COC3)n1 [Compound 11, 5-(4-(3-oxa-8-azabicyclo[3.2.1]octan-8-yl)-6-((S)-3-methylmorpholino)-1,3,5-triazin-2-yl)-4-(difluoromethyl)pyrimidin-2-amine] | 61 nM | 96 nM | –
29 | Nc1cc(C(F)F)c(-c2nc(N3C4CCC3COC4)nc(N3C4COCC3COC4)n2)cn1 [Compound 38, 4-(difluoromethyl)-5-[4-(3,7-dioxa-9-azabicyclo[3.3.1]nonan-9-yl)-6-(3-oxa-8-azabicyclo[3.2.1]octan-8-yl)-1,3,5-triazin-2-yl]pyridin-2-amine] | 219 nM | 79 nM | –
30 | C[C@@H]1COCCN1c1nc(-c2cnc(N)cc2C(F)F)nc(N2C3COCC2C3)n1 [Compound 50, 4-(difluoromethyl)-5-[4-[(3R)-3-methylmorpholin-4-yl]-6-(3-oxa-6-azabicyclo[3.1.1]heptan-6-yl)-1,3,5-triazin-2-yl]pyridin-2-amine] | 1560 nM | 407 nM | –
31 | C[C@@H]1COCCN1c1nc(-c2cnc(N)cc2C(F)F)nc(N2CC3CC(C2)O3)n1 [Compound 51, 4-(difluoromethyl)-5-[4-[(3R)-3-methylmorpholin-4-yl]-6-(6-oxa-3-azabicyclo[3.1.1]heptan-3-yl)-1,3,5-triazin-2-yl]pyridin-2-amine] | 875 nM | 352 nM | –
32 | Nc1cc(C(F)F)c(-c2nc(N3CCOCC3)nc(N3C4CCCC3COC4)n2)cn1 [Compound 80, 4-(difluoromethyl)-5-[4-morpholino-6-(3-oxa-9-azabicyclo[3.3.1]nonan-9-yl)-1,3,5-triazin-2-yl]pyridin-2-amine] | 94 nM | 117 nM | –
33 | Nc1cc(C(F)F)c(-c2nc(N3CCOCC3)nc(N3C4COCC3COC4)n2)cn1 [Compound 84, 4-(difluoromethyl)-5-[4-(3,7-dioxa-9-azabicyclo[3.3.1]nonan-9-yl)-6-morpholino-1,3,5-triazin-2-yl]pyridin-2-amine] | 116 nM | 146 nM | –
